Measurements from patent US20250325525A1, “GLP1 TABLET COMPOSITIONS” (Eli Lilly and Company, priority 2022, published 2025).

Assay: Twenty-four hour aqueous solubility at 25° C.
Assay type: physicochemical
Conditions: thermodynamic from solid, crystalline
Protocol: Twenty-four Hour Aqueous Solubility of Crystalline GLP1RA-Ca at 25° C.
Twenty-Four Hour Aqueous Solubility of Preparation 3 SDD at 25° C.

solubility at 24 h (aqueous buffer, pH 4.5 acetate buffer (USP), media pH 4.5): < 1 µg/mL
solubility at 24 h (aqueous buffer, pH 6.0 phosphate buffer (USP), media pH 5.99): < 1 µg/mL
solubility at 24 h (aqueous buffer, pH 7.5 phosphate buffer (USP), media pH 7.44): 3 µg/mL
solubility at 24 h (fassif, Fasted state simulated intestinal fluid, media pH 6.49): 2 µg/mL
solubility at 24 h (fessif, Fed state simulated intestinal fluid, media pH 4.93): 13 µg/mL
solubility at 24 h (simulated gastric fluid, 0.01N HCl, media pH 1.98): < 1 µg/mL
solubility at 24 h (simulated gastric fluid, 0.1N HCl, media pH 1.01): < 1 µg/mL
solubility at 24 h (Simulated gastric fluid, media pH 1.97): 3 µg/mL
solubility at 24 h (Water, media pH not measured): 28 µg/mL
SMILES: Cc1cc(-n2nc3c(c2-n2ccn(-c4ccc5c(cnn5C)c4F)c2=O)[C@H](C)N(C(=O)c2cc4cc([C@H]5CCOC(C)(C)C5)ccc4n2[C@@]2(c4noc(=O)[nH]4)C[C@@H]2C)CC3)cc(C)c1F [GLP1RA-Ca, 3-[(1S,2S)-1-[5-[(4S)-2,2-dimethyloxan-4-yl]-2-[(4S)-2-(4-fluoro-3,5-dimethylphenyl)-3-[3-(4-fluoro-1-methylindazol-5-yl)-2-oxoimidazol-1-yl]-4-methyl-6,7-dihydro-4H-pyrazolo[4,3-c]pyridine-5-carbonyl]indol-1-yl]-2-methylcyclopropyl]-4H-1,2,4-oxadiazol-5-one, 0.5 Ca hydrate]
